The test concerns HEK293 cells. In words: Preliminary screening as mRNA vectors, EGFP mRNA transfection of HEK293 cells. In kind it is cell-based. To be noted: EGFP mRNA 50 ng per well, 96-well plates; percentage of GFP fluorescent cells relative to total number of cells (Hoechst). In a few lines: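 Each well of HEK293 cells received 50 ng of EGFP mRNA. Efficiency was expressed as percent GFP-expressing cells over Hoechst-defined total cell number.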

The structures appear in SMILES notation.

For the compound `CCCCCCCCCCCCCCCCCCNc1nc(NCCN2CCCC2)nc(SCCCCCCC)n1` [Compound D3S7N18], the “Absolute mRNA transfection efficiency in HEK293 cells” value (“Absolute mRNA transfection efficiency” for short) came to 39.8%.
Under `CCCCCCCSc1nc(NCCN2CCCC2)nc(SCCCCCCC)n1` [Compound D3S7S7] stands 12.2%.
With `CCCCCCCCSc1nc(NCCN2CCCC2)nc(SCCCCCCC)n1` [Compound D3S7S8], the “Absolute mRNA transfection efficiency” value was 2.7%.
For `CCCCCCCCCSc1nc(NCCN2CCCC2)nc(SCCCCCCC)n1` [Compound D3S7S9], the “Absolute mRNA transfection efficiency” value stood at 12.6%.
Under `CCCCCCCCCCSc1nc(NCCN2CCCC2)nc(SCCCCCCC)n1` [Compound D3S7S10] stands 3.3%; under `CCCCCCCCCCCSc1nc(NCCN2CCCC2)nc(SCCCCCCC)n1` [Compound D3S7S11], 11.4%; under `CCCCCCCCCCCCSc1nc(NCCN2CCCC2)nc(SCCCCCCC)n1` [Compound D3S7S12], 5.4%.
Take `CCCCCCCCCCCCCCSc1nc(NCCN2CCCC2)nc(SCCCCCCC)n1` [Compound D3S7S14]: the “Absolute mRNA transfection efficiency” value is 14.6%.
Under `CCCCCCCCCCCCCCCSc1nc(NCCN2CCCC2)nc(SCCCCCCC)n1` [Compound D3S7S15] stands 12.0%; under `CCCCCCCCCCCCCCCCSc1nc(NCCN2CCCC2)nc(SCCCCCCC)n1` [Compound D3S7S16], 11.6%; under `CCCCCCCCCCCCCCCCCCSc1nc(NCCN2CCCC2)nc(SCCCCCCC)n1` [Compound D3S7S18], 7.9%.
Under `CCCCCCCCSc1nc(NCCCCCC)nc(NCCN2CCCC2)n1` [Compound D3S8N6] stands 2.6%; under `CCCCCCCCSc1nc(NCCCCCCC)nc(NCCN2CCCC2)n1` [Compound D3S8N7], 0.7%; under `CCCCCCCCNc1nc(NCCN2CCCC2)nc(SCCCCCCCC)n1` [Compound D3S8N8], 3.0%.
As to `CCCCCCCCCNc1nc(NCCN2CCCC2)nc(SCCCCCCCC)n1` [Compound D3S8N9], the “Absolute mRNA transfection efficiency” value turned out to be 3.2%.
With `CCCCCCCCCCCNc1nc(NCCN2CCCC2)nc(SCCCCCCCC)n1` [Compound D3S8N11], the “Absolute mRNA transfection efficiency” value was determined as 6.6%.
Take `CCCCCCCCCCCCNc1nc(NCCN2CCCC2)nc(SCCCCCCCC)n1` [Compound D3S8N12]: the “Absolute mRNA transfection efficiency” value turned out to be 24.6%.
As to `CCCCCCCCCCCCCNc1nc(NCCN2CCCC2)nc(SCCCCCCCC)n1` [Compound D3S8N13], the “Absolute mRNA transfection efficiency” value is listed as 35.8%.
Under `CCCCCCCCCCCCCCCNc1nc(NCCN2CCCC2)nc(SCCCCCCCC)n1` [Compound D3S8N15] stands 21.8%; under `CCCCCCCCCCCCCCCCNc1nc(NCCN2CCCC2)nc(SCCCCCCCC)n1` [Compound D3S8N16], 14.3%.
Under `CCCCCCCCCCCCCCCCCCNc1nc(NCCN2CCCC2)nc(SCCCCCCCC)n1` [Compound D3S8N18] stands 28.6%; under `CCCCCCCCSc1nc(NCCN2CCCC2)nc(SCCCCCCCC)n1` [Compound D3S8S8], 26.1%.
For the compound `CCCCCCCCCSc1nc(NCCN2CCCC2)nc(SCCCCCCCC)n1` [Compound D3S8S9], the “Absolute mRNA transfection efficiency” value worked out at 11.6%.
For the compound `CCCCCCCCCCSc1nc(NCCN2CCCC2)nc(SCCCCCCCC)n1` [Compound D3S8S10], the “Absolute mRNA transfection efficiency” value worked out at 12.0%.
Under `CCCCCCCCCCCSc1nc(NCCN2CCCC2)nc(SCCCCCCCC)n1` [Compound D3S8S11] stands 4.9%; under `CCCCCCCCCCCCSc1nc(NCCN2CCCC2)nc(SCCCCCCCC)n1` [Compound D3S8S12], 3.5%; under `CCCCCCCCCSc1nc(NCCCCCC)nc(NCCN2CCCC2)n1` [Compound D3S9N6], 0.2%.
In the case of `CCCCCCCCCSc1nc(NCCCCCCC)nc(NCCN2CCCC2)n1` [Compound D3S9N7], the “Absolute mRNA transfection efficiency” value is given as 1.4%.
Under `CCCCCCCCCSc1nc(NCCCCCCCC)nc(NCCN2CCCC2)n1` [Compound D3S9N8] stands 10.4%; under `CCCCCCCCCNc1nc(NCCN2CCCC2)nc(SCCCCCCCCC)n1` [Compound D3S9N9], 15.4%.
On to `CCCCCCCCCCCNc1nc(NCCN2CCCC2)nc(SCCCCCCCCC)n1` [Compound D3S9N11], for which the “Absolute mRNA transfection efficiency” value was found to be 47.8%.
Under `CCCCCCCCCCCCNc1nc(NCCN2CCCC2)nc(SCCCCCCCCC)n1` [Compound D3S9N12] stands 49.6%.
Consider `CCCCCCCCCCCCCNc1nc(NCCN2CCCC2)nc(SCCCCCCCCC)n1` [Compound D3S9N13], for which the “Absolute mRNA transfection efficiency” value amounted to 58.2%.
Under `CCCCCCCCCCCCCCCNc1nc(NCCN2CCCC2)nc(SCCCCCCCCC)n1` [Compound D3S9N15] stands 67.9%; under `CCCCCCCCCCCCCCCCNc1nc(NCCN2CCCC2)nc(SCCCCCCCCC)n1` [Compound D3S9N16], 50.3%.
Under `CCCCCCCCCCCCCCCCCCNc1nc(NCCN2CCCC2)nc(SCCCCCCCCC)n1` [Compound D3S9N18] stands 26.7%; under `CCCCCCCCCCSc1nc(NCCCCCC)nc(NCCN2CCCC2)n1` [Compound D3S10N6], 0.4%.
Under `CCCCCCCCCCSc1nc(NCCCCCCC)nc(NCCN2CCCC2)n1` [Compound D3S10N7] stands 1.4%; under `CCCCCCCCCCSc1nc(NCCCCCCCC)nc(NCCN2CCCC2)n1` [Compound D3S10N8], 0.4%.
As to `CCCCCCCCCCSc1nc(NCCCCCCCCC)nc(NCCN2CCCC2)n1` [Compound D3S10N9], the “Absolute mRNA transfection efficiency” value is 2.7%.
Under `CCCCCCCCCCCNc1nc(NCCN2CCCC2)nc(SCCCCCCCCCC)n1` [Compound D3S10N11] stands 17.1%; under `CCCCCCCCCCCCNc1nc(NCCN2CCCC2)nc(SCCCCCCCCCC)n1` [Compound D3S10N12], 19.1%; under `CCCCCCCCCCCCCNc1nc(NCCN2CCCC2)nc(SCCCCCCCCCC)n1` [Compound D3S10N13], 35.0%.
Under `CCCCCCCCCCCCCCCNc1nc(NCCN2CCCC2)nc(SCCCCCCCCCC)n1` [Compound D3S10N15] stands 57.6%; under `CCCCCCCCCCCCCCCCNc1nc(NCCN2CCCC2)nc(SCCCCCCCCCC)n1` [Compound D3S10N16], 56.7%.
Under `CCCCCCCCCCCCCCCCCCNc1nc(NCCN2CCCC2)nc(SCCCCCCCCCC)n1` [Compound D3S10N18] stands 59.6%; under `CCCCCCCCCCCSc1nc(NCCCCCC)nc(NCCN2CCCC2)n1` [Compound D3S11N6], 18.1%.
Turning to `CCCCCCCCCCCSc1nc(NCCCCCCC)nc(NCCN2CCCC2)n1` [Compound D3S11N7], the “Absolute mRNA transfection efficiency” value turned out to be 8.0%.
Under `CCCCCCCCCCCSc1nc(NCCCCCCCC)nc(NCCN2CCCC2)n1` [Compound D3S11N8] stands 31.8%; under `CCCCCCCCCCCSc1nc(NCCCCCCCCC)nc(NCCN2CCCC2)n1` [Compound D3S11N9], 24.5%.
Under `CCCCCCCCCCCNc1nc(NCCN2CCCC2)nc(SCCCCCCCCCCC)n1` [Compound D3S11N11] stands 33.5%; under `CCCCCCCCCCCCNc1nc(NCCN2CCCC2)nc(SCCCCCCCCCCC)n1` [Compound D3S11N12], 40.5%; under `CCCCCCCCCCCCCNc1nc(NCCN2CCCC2)nc(SCCCCCCCCCCC)n1` [Compound D3S11N13], 25.9%.
Under `CCCCCCCCCCCCCCCNc1nc(NCCN2CCCC2)nc(SCCCCCCCCCCC)n1` [Compound D3S11N15] stands 31.3%; under `CCCCCCCCCCCCCCCCNc1nc(NCCN2CCCC2)nc(SCCCCCCCCCCC)n1` [Compound D3S11N16], 15.7%.
`CCCCCCCCCCCCCCCCCCNc1nc(NCCN2CCCC2)nc(SCCCCCCCCCCC)n1` [Compound D3S11N18]: the “Absolute mRNA transfection efficiency” value is given as 40.6%.
Under `CCCCCCCCCCCCSc1nc(NCCCCCC)nc(NCCN2CCCC2)n1` [Compound D3S12N6] stands 0.0%; under `CCCCCCCCCCCCSc1nc(NCCCCCCC)nc(NCCN2CCCC2)n1` [Compound D3S12N7], 9.2%; under `CCCCCCCCCCCCSc1nc(NCCCCCCCC)nc(NCCN2CCCC2)n1` [Compound D3S12N8], 12.3%.
Consider `CCCCCCCCCCCCSc1nc(NCCCCCCCCC)nc(NCCN2CCCC2)n1` [Compound D3S12N9], for which the “Absolute mRNA transfection efficiency” value is listed as 39.9%.
For the compound `CCCCCCCCCCCCSc1nc(NCCCCCCCCCCC)nc(NCCN2CCCC2)n1` [Compound D3S12N11], the “Absolute mRNA transfection efficiency” value came to 21.2%.
Under `CCCCCCCCCCCCNc1nc(NCCN2CCCC2)nc(SCCCCCCCCCCCC)n1` [Compound D3S12N12] stands 10.8%.
Under `CCCCCCCCCCCCCNc1nc(NCCN2CCCC2)nc(SCCCCCCCCCCCC)n1` [Compound D3S12N13] stands 0.3%.

(Values after US20230123334A1, “AMINO LIPID COMPOUND, PREPARATION METHOD THEREFOR, AND APPLICATION THEREOF” (SHENZHEN SHENXIN BIOTECHNOLOGY CO., LTD., priority 2020, published 2023).)
